Measured values reported in patent US5252589A, “Benzocycloheptene derivative and process for preparation thereof” (Tanabe Seikayu Co., Ltd., priority 1992, dated 1993).
Where “and” joins values, the source holds several entries; their conditions need not be identical. Equal entries are not always repeated.

What was measured:
urinary bladder = experiment: Inhibitory effect on urinary bladder contractions (carbachol-induced, isolated rat urinary bladder); details: Tyrode solution 37° C., contraction by 1×10^-5 M carbachol, compound added 5 minutes before carbachol, read-out: IC50, concentration of the test compound required to induce 50% inhibition of the pressure
Experimental: (Inhibitory effect on urinary bladder contractions)
Rats (body weight: 250 to 450 g) were used as the test animals. […] Urinary bladder was filled with 0.8 ml of a physiological saline solution. An ureteral catheter was inserted into the urinary bladder and one end of the catheter was connected to a pressure transducer. The change in intravesical pressure of the bladder was recorded. Contraction was induced by adding 1×10^-5 M carbachol at 30 minutes intervals. After the contraction became stable, the test compound was added to the Tyrode solution 5 minutes before the addition of carbachol.

[1] = Acute oral toxicity in mice; assay type: in vivo; details: 500 mg/kg
Experimental: For example, when (±)-cis-5-(2-thienyl)-7-isopropylamino-6,7,8,9-tetrahydro-5H-benzocyclohepten-5-ol was orally administered to mice at a dose of 500 mg/kg, no mouse died two days after the administration thereof.

IC50 (urinary bladder) | Compound | mortality two days after oral administration [1]
700 nM | O[C@@]1(c2cccs2)C[C@@H](N2CCCCC2)CCc2ccccc21 (racemic) [(±)-cis-5-(2-thienyl)-7-(1-piperidinyl)-6,7,8,9-tetrahydro-5H-benzocyclohepten-5-ol] | 
1100 nM | CCN(CC)[C@H]1CCc2ccccc2[C@](O)(c2cccs2)C1 (racemic) [(±)-cis-5-(2-thienyl)-7-diethylamino-6,7,8,9-tetrahydro-5H-benzocyclohepten-5-ol] | 

Compound | IC50 (urinary bladder) | mortality two days after oral administration [1]
(±)-cis-5-(2-thienyl)-7-isopropylamino-6,7,8,9-tetrahydro-5H-benzocyclohepten-5-ol | 2600 nM and 2200 nM | no mouse died
